Measured values from paper PMC4033217, “Characterization of Novel PI3Kδ Inhibitors as Potential Therapeutics for SLE and Lupus Nephritis in Pre-Clinical Studies” (Frontiers in Immunology, 2014).
Like-named read-outs stand apart in the source and are kept apart here.

Key:
[1] = biological target: PI3K β (Homo sapiens, UniProt P42338); assay: Scintillation proximity assay, PI3Kβ enzymatic activity; type: biochemical; settings: 65 μM ATP, read-out: Enzymatic potency IC50
[2] = test system: CD19+ B cells; assay: B cell proliferation assay (anti-IgM + IL-4, [3H]thymidine); type: cell-based, human; settings: for IC50: anti-IgM and IL-4, 4 days
Protocol: CD19^+ B cells were isolated from PBMC of healthy volunteers by negative selection using the B cell purification kit II (Miltenyi Biotech, Bergisch Gladbach, Germany) and following manufacturer’s instructions. […] Proliferation was assessed by a multiplate beta counter (Perkin Elmer, Shelton, CT, USA).

[3] = test system: pAkt in CD19+ B cells, human whole blood; assay: Anti-IgM-induced pAkt in human whole blood; type: cell-based; settings: B-cell, 5 min, healthy donors
Protocol: Human whole blood was incubated with PI3Kδ inhibitors for 30 min and stimulated with 30 μg/ml anti-IgM (Jackson Immuno Research, West Grove, PA, USA) for 5 min at 37°C. […] Cell were stained with rabbit anti-pAkt (Ser473) followed by the Alexa647-conjugated F(ab′)2 goat anti-rabbit IgG (Invitrogen, Carlsbad, CA, USA), and anti-CD19-PE (BD Biosciences Pharmingen, San Diego, CA, USA). CD19^+ cells were gated for pAkt analysis.

[4] = test system: CD69 on CD19+ B cells, human whole blood; assay: Anti-IgM-induced CD69 in human whole blood; type: cell-based; settings: B-cell, healthy donors, 18 h, read-out: IC50 anti-IgM-induced CD69 up-regulation
Source text: After red blood cells lysis, CD19^+ cells were gated for CD69 analysis.

[5] = test system: CD69 on CD19+ cells, PBMCs from SLE patients; assay: Anti-IgM-induced CD69 up-regulation in PBMCs from SLE patients; type: cell-based; settings: Homo sapiens, PBMC, 18 h, SLE patient PBMC, anti-IgM 18 h
Protocol: Heparinized human blood or buffy-coat prepared from healthy donors was obtained from the “Center de transfusion sanguine” of Geneva (Switzerland). Cryopreserved PBMCs from SLE patients were obtained from Asterand (Detroit, MI, USA). […] Studies were approved by Merck Serono ethics committee.
(A) Peripheral blood from healthy donors were collected in heparinized tubes and stimulated with anti-IgM for 5 min. Intracellular pAkt gated on CD19^+ cells were analyzed by flow cytometry. […] CD69 up-regulation on CD19^+ cells were analyzed by flow cytometry. Mean fluorescent intensity (MFI) from basal and stimulated conditions without inhibitor were used as 100% of activity. […]

[6] = test system: pAkt in B220+ B cells, mouse whole blood; assay: Anti-IgD-induced pAkt in mouse whole blood (in vitro); type: cell-based; settings: for IC50: B-cell, mouse whole blood in vitro, anti-IgD
Protocol: Whole blood withdrawn from C57BL/6N mice (Charles River Laboratories, L’Arbresle, France) was incubated with PI3Kδ inhibitors for 30 min and stimulated with goat anti-mouse IgD antiserum (eBioscience, San Diego, CA, USA) for 7 min at 37°C. […] Cells were stained with rabbit anti-pAkt (Ser473) for 1 h followed by anti-IgD-FITC, anti-B220-PerCP-Cy5.5 (all BD Biosciences Pharmingen, San Diego, CA, USA), and donkey anti-rabbit IgG-Alexa647 (Invitrogen, Carlsbad, CA, USA) for 30 min at room temperature. B220^+IgD^+ cells were gated for pAkt analysis.

[7] = test system: CD69 on B220+ B cells, mouse whole blood; assay: Anti-IgD-induced CD69 in mouse whole blood (in vitro); type: cell-based; settings: B-cell
Protocol: Whole blood withdrawn from naïve C57BL/6N mice (Charles River Laboratories, L’Arbresle, France) were incubated with PI3Kδ inhibitors for 30 min and stimulated with 1/12 goat anti-mouse IgD antiserum (eBioscience, San Diego, CA, USA) for 4 h before staining with anti-B220-PerCP-Cy5.5 and anti-CD69-PE (all BD Biosciences Pharmingen, San Diego, CA, USA) for 30 min at room temperature. After red blood cells lysis, B220^+IgD^+ cells were gated for CD69 analysis.

[8] = test system: pAkt; assay: Imax PK/PD model of BCR activation-induced pAkt response; settings: mouse, estimated in vivo PD parameter (pAkt)
Source text: An Imax PK/PD model describing BCR activation-induced pAkt response was established using data from in vitro and ex vivo mouse whole blood assays.

[9] = Intrinsic clearance in mouse liver microsomes; type: in vitro ADME; settings: read-out: In vitro Clint
Source text: (§1) 36 CLint: intrinsic clearance in liver microsomes. h/m: human/mouse. Papp: apparent permeability. uPPB:
(§2) 37 unbound plasma protein binding. […]

[10] = Unbound plasma protein binding, mouse; type: in vitro ADME; settings: unbound fraction
Source text: as §1, §2

Sequence of PI3K β (P42338 whole entry): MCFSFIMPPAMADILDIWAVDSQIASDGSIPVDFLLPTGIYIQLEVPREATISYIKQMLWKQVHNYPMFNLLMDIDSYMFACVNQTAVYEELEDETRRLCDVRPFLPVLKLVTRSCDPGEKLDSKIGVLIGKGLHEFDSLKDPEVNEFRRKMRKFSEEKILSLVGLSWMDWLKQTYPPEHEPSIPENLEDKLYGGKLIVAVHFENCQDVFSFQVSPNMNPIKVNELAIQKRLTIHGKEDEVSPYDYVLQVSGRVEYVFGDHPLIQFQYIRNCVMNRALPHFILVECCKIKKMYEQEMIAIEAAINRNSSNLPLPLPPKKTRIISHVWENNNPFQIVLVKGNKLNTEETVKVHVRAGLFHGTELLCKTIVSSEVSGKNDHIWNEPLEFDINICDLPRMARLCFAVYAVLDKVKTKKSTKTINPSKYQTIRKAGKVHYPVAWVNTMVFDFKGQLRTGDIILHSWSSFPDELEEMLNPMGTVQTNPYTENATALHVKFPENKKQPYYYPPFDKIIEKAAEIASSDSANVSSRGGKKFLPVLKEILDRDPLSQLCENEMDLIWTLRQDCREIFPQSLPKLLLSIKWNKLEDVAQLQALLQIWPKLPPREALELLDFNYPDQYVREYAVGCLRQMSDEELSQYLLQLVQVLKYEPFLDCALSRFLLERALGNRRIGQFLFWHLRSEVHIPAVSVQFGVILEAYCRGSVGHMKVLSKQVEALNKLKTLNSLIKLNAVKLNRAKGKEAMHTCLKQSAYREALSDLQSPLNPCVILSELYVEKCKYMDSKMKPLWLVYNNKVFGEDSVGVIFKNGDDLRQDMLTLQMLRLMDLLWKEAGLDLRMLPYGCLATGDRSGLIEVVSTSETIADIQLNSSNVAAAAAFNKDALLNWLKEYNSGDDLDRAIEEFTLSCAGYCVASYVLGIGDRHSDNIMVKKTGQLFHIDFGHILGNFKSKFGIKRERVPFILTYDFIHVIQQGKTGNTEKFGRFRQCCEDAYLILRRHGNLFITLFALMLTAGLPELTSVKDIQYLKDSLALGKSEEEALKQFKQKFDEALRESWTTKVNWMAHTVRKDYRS
Sequence of PI3K β (P27986 whole entry partner): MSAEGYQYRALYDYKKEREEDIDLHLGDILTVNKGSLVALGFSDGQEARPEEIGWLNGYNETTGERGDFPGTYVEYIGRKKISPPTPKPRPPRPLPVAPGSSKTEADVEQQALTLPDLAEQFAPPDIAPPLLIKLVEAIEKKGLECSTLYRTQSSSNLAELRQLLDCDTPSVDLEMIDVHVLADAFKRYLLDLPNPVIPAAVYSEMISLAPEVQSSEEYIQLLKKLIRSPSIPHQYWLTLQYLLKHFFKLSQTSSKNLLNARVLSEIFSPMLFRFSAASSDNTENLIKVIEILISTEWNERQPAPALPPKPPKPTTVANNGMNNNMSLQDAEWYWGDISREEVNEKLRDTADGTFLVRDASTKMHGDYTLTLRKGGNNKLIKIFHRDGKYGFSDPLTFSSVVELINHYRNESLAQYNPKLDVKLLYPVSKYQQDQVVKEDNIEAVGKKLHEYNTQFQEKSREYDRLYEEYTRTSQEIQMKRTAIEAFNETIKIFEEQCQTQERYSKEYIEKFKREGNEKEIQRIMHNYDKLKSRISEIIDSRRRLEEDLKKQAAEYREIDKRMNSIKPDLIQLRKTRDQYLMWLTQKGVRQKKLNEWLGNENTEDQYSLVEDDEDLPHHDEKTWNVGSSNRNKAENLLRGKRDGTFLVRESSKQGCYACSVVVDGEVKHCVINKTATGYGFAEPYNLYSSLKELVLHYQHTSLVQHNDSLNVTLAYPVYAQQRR

With `O=C(c1nn([C@@H]2CCCN(CCN3CCOCC3)C2)c2c1CS(=O)(=O)c1cc(F)ccc1-2)N1CCOCC1` [MSC2364588, (R)-7-fluoro-3-(morpholin-4-ylcarbonyl)-1-[1-(2-morpholin-4-ylethyl)piperidin-3-yl]-1,4-dihydrothiochro-meno[4,3-c]pyrazole 5,5-dioxide] the IC50 [1] was 2450 nM, the “Potency relative to MSC2360844” value ([2]; B cell function) was 10 times and the IC50 ([2]; Homo sapiens, B-cell, 96 h) was 7 nM. For the same compound, the IC50 [2] was 6 nM, the IC50 [3] was 32 nM and the IC50 [4] was 21 nM. The IC50 ([5]; another donor (Figure 4C, right)) was 12 nM, the IC50 ([5]; one donor (Figure 4C, left)) was 9 nM and the IC50 ([6]; average, read-out: average IC50 for pAkt) was 35 nM. The IC50 ([6]; representative experiment of Figure 5A, read-out: IC50 pAkt) was 59 nM, the “Potency relative to MSC2360844” value ([6]; mouse whole blood in vitro assay) was “approximately 10 folds” and the IC50 ([7]; average, read-out: average IC50 for CD69) was 16 nM. For the same compound, the IC50 ([7]; representative experiment of Figure 5B, read-out: IC50 CD69) was 18 nM, the IC50 [8] was 47 nM and the microsomal CLint [9] was 35 µL/min/mg. It also gave a uPPB % [10] of 65%.
